Data from US20130065962A1, “Compounds For Use In The Treatment Of Diseases” (INOXIA LIFESCIENCES GMBH, priority 2010, published 2013).
Read-outs that look alike come from different tables or passages of the source.

Legend:
Assay type in all cases: biochemical
[1] = target: T1, eosinophil peroxidase (EPO) (Homo sapiens, UniProt P11678); test: EPO bromination activity, monochlorodimedon (MCD) assay
T1 construct: 20 nM of EPO
T1 sequence (P11678 140-715): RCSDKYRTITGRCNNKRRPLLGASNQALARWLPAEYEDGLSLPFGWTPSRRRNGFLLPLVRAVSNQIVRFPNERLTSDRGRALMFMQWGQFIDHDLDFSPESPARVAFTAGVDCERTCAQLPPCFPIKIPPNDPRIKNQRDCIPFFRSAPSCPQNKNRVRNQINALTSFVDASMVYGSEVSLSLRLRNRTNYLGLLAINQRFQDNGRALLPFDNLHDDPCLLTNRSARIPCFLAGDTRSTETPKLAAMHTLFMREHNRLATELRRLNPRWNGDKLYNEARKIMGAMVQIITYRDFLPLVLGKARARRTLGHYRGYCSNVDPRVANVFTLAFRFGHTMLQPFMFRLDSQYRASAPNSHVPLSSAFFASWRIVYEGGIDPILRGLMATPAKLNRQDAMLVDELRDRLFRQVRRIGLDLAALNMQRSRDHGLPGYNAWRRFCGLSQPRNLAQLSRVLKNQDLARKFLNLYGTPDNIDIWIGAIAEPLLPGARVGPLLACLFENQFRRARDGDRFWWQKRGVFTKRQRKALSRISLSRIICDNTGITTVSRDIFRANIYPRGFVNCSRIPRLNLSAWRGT
Protocol: In order to test to what extent the substances according to the invention are able to inhibit EPO, the substances were tested for their inhibitory potential. […] In that, IC50 is that inhibitor concentration, which is required to inhibit an enzyme, here EPO, by 50%. This concentration is determined UV/Vis spectrophotometrically at 290 nm in the steady-state with a monochlorodimedon (MCD) assay.
Eosinophil peroxidase forms a multiplicity of different enzyme intermediates and is able to catalyze a high number of redox reactions. The physiological role of EPO is the oxidation of bromide or thiocyanate, respectively, to hypobromous acid or hypothiocyanate, respectively (also called halogenation cycle). And it is exactly this reaction that has to be inhibited. In the presence of phenolic substances, however, the enzyme can also undergo the so-called peroxidase cycle.
In order to determine the properties of the substances according to the invention to be inhibited, a method was used, in which the bromination activity is examined.
The extent of inhibition of the physiological bromide oxidation was photometrically determined using monochlorodimedon. The halogenation rate (initial inclination of the curve at 290 nm) with inhibitor was related to a blind value (without inhibitor), and therefrom the inactivation rate (in %) was determined. This was entered into a diagram (y-axis) opposite the inhibitor concentration (x-axis), and from the hyperbolic fit of the curve, the IC50 value for each inhibitor was determined.
100 mM of phosphate buffer, pH 7.0
100 μM of monochlorodimedon

[2] = target: lactoperoxidase (LPO) (UniProt P80025); test: LPO + Br halogenation inhibition (MCD assay); conditions: bromide as substrate
[3] = target: T2, myeloperoxidase (MPO) (Homo sapiens, UniProt P05164); test: MPO + Cl halogenation inhibition (MCD assay); conditions: chloride as substrate
T2 sequence (P05164 49-745): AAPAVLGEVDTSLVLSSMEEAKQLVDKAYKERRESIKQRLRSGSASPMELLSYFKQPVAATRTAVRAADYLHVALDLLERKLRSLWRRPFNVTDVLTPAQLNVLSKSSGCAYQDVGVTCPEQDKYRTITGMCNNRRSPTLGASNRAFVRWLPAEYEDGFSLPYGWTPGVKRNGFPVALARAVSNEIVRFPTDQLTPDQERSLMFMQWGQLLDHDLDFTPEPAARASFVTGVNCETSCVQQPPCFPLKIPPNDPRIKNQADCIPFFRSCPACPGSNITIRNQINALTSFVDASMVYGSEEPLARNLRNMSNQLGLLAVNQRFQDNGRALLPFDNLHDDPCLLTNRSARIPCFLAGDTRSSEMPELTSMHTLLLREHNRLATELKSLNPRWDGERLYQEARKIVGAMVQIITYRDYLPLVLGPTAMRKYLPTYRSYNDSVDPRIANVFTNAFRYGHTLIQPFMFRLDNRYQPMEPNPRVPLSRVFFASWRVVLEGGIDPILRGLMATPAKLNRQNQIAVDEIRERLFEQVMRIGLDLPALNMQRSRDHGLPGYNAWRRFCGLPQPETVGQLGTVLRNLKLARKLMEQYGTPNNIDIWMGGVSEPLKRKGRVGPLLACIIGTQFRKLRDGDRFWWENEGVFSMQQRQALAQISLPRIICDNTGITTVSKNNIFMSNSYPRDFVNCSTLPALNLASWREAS

[4] = target: T2, myeloperoxidase (MPO); test: MPO + Br halogenation inhibition (MCD assay); conditions: bromide as substrate
[5] = bromide oxidation, MCD assay at 290 nm, 100 mM bromide, 20 nM EPO, pH 7.0, read-out: IC50 EPO + Br
[6] = Example 3, same protocol as Example 1, read-out: IC50 EPO/Br
[7] = Example 2, tests performed as in Example 1, read-out: IC50 value (EPO)

IC50 [1, 5] [nM]	IC50 [2] [nM]	IC50 [3] [nM]	IC50 [4] [nM]	fold potential relative to compound (6) (EPO IC50) ([1]; compound (3) compared with non-halogenated compound (6)) [fold]	IC50 [1, 6] [nM]	IC50 [1, 7] [nM]	SMILES
240	540	5430	4120	–	–	–	NNC(=O)CNc1ccc(F)cc1 [(1), 4-fluoro-phenylaminoethane-hydrazide]
24	30	1970	1200	–	–	–	NNC(=O)CNc1ccc(Cl)cc1 [(2), 4-chloro-phenylaminoethane-hydrazide]
9	100	8800	1900	> 200	–	–	NNC(=O)CNc1ccccc1F [(3), 2-fluoro-phenylaminoethane-hydrazide]
19	140	2400	547	–	–	–	NNC(=O)CNc1ccc(F)c(Cl)c1 [(4), 4-fluoro-3-chloro-phenylaminoethane-hydrazide]
17	40	3700	1600	–	–	–	NNC(=O)CNc1cccc(Br)c1 [(5), 3-bromo-phenylaminoethane-hydrazide]
34	322	6550	2040	–	–	–	NNC(=O)CNc1ccc(F)cc1F [(7), 2,4-di-fluoro-phenylaminoethane-hydrazide]
2270	2770	32200	29400	–	–	–	Cc1ccc(NCC(=O)NN)cc1 [(8), 4-methyl-phenylaminoethane-hydrazide]
2290	4970	46000	84600	–	–	–	NNC(=O)CNc1ccccc1 [Compound (6), phenylaminoethane-hydrazide]
–	–	–	–	–	1000	–	O=C(O)CNc1ccccc1F [PD01, N-(2-fluorophenyl)glycin]
–	–	–	–	–	200	–	O=C(O)CNc1ccc(Cl)cc1 [PD02, 2-[(4-chlorophenyl)amino]acetic acid]
–	–	–	–	–	1200	–	NNC(=O)CSc1ccc(Cl)cc1 [PD06, 2-[(4-chlorophenyl)sulfanyl]acetohydrazide]
–	–	–	–	–	2700	–	NNC(=O)COc1ccc(F)cc1 [PD09, 2-(4-fluorophenoxy)acetohydrazide]
–	–	–	–	–	3900	–	NNC(=O)COc1ccccc1Br [PD17, 2-(2-bromophenoxy)acetohydrazide]
–	–	–	–	–	3100	–	NNC(=O)CCc1ccccc1O [PD20, 3-(2-hydroxyphenyl)propanohydrazide]
–	–	–	–	–	–	> 500000	CC(C)NNC(=O)c1ccncc1 [iproniazide, N′-isopropylisonicotinohydrazide, reference compound]
–	–	–	–	–	–	6040	NNC(=O)c1ccncc1 [isoniazide, pyridine-4-carbohydrazide, reference compound]
